Measured values published in ChEMBL document CHEMBL1201862, “PubChem BioAssay data set” (2004).
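Five concentrations, 48 hours, 96-well plates. Abbreviation: GI50, concentration required for 50% inhibition of growth.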 Active and inactive are the calls of the source. No stated cut-off is given here; in the data, active = GI50 up to about 1.1 µM and inactive = higher.

Tests used:
Assay in all cases: DTP human tumour cell line panel, 48 h
786-0 = test system: 786-0
NCI-H23 = test system: NCI-H23
M14 = test system: M14
SK-MEL-2 = test system: SK-MEL-2
HL-60 = test system: HL-60
SF-268 = test system: SF-268
NCI-H522 = test system: NCI-H522
SK-MEL-28 = test system: SK-MEL-28
TK-10 = test system: TK-10
ACHN = test system: ACHN
UACC-257 = test system: UACC-257
SNB-19 = test system: SNB-19
SR = test system: SR
HCT-15 = test system: HCT-15
SF-539 = test system: SF-539
HCC 2998 = test system: HCC 2998
LOX IMVI = test system: LOX IMVI

## O=C1OCCC1C(O)C1c2ccccc2-c2ccccc21 (stereo not given)
786-0
  GI50: > 100 µM (inactive)
NCI-H23
  GI50: > 100 µM (inactive)
M14
  GI50: > 100 µM (inactive)
SK-MEL-2
  GI50: > 100 µM (inactive)
HL-60
  GI50: > 100 µM (inactive)
SF-268
  GI50: > 100 µM (inactive)
NCI-H522
  GI50: > 100 µM (inactive)
SK-MEL-28
  GI50: > 100 µM (inactive)
TK-10
  GI50: > 100 µM (inactive)
ACHN
  GI50: > 100 µM (inactive)
UACC-257
  GI50: > 100 µM (inactive)
SNB-19
  GI50: > 100 µM (inactive)
SR
  GI50: > 100 µM (inactive)

## CC#CC1/C(=C\C(=O)OC)CCCC1O (stereo not given)
HCT-15
  GI50: > 100 µM
786-0
  GI50: > 100 µM (inactive)
NCI-H23
  GI50: > 100 µM (inactive)
M14
  GI50: > 100 µM (inactive)
SK-MEL-2
  GI50: > 100 µM (inactive)
HL-60
  GI50: > 100 µM (inactive)
SF-268
  GI50: > 100 µM (inactive)
SF-539
  GI50: > 100 µM (inactive)
HCC 2998
  GI50: > 100 µM (inactive)
NCI-H522
  GI50: > 100 µM (inactive)
SK-MEL-28
  GI50: > 100 µM (inactive)
TK-10
  GI50: > 100 µM (inactive)
ACHN
  GI50: > 100 µM (inactive)
UACC-257
  GI50: > 100 µM (inactive)
SNB-19
  GI50: > 100 µM (inactive)
SR
  GI50: > 100 µM (inactive)

## Cc1cc(=O)oc2c1cc(OCC(=O)OCCN1CCCCC1)c1occ(C)c12
HCT-15
  GI50: > 100 µM
786-0
  GI50: > 100 µM (inactive)
NCI-H23
  GI50: > 100 µM (inactive)
M14
  GI50: > 100 µM (inactive)
SK-MEL-2
  GI50: > 100 µM (inactive)
HL-60
  GI50: > 100 µM (inactive)
SF-539
  GI50: > 100 µM (inactive)
HCC 2998
  GI50: > 100 µM (inactive)
SK-MEL-28
  GI50: > 100 µM (inactive)
TK-10
  GI50: > 100 µM (inactive)
ACHN
  GI50: > 100 µM (inactive)
LOX IMVI
  GI50: > 100 µM (inactive)
UACC-257
  GI50: > 100 µM (inactive)
SNB-19
  GI50: > 100 µM (inactive)

## N#CC1CCCCC1NC1(C#N)CCCCC1 (stereo not given)
HCT-15
  GI50: > 100 µM
786-0
  GI50: > 100 µM (inactive)
NCI-H23
  GI50: > 100 µM (inactive)
M14
  GI50: > 100 µM (inactive)
SK-MEL-2
  GI50: > 100 µM (inactive)
HL-60
  GI50: > 100 µM (inactive)
SF-268
  GI50: > 100 µM (inactive)
SF-539
  GI50: > 100 µM (inactive)
HCC 2998
  GI50: > 100 µM (inactive)
NCI-H522
  GI50: > 100 µM (inactive)
SK-MEL-28
  GI50: > 100 µM (inactive)
TK-10
  GI50: > 100 µM (inactive)
LOX IMVI
  GI50: > 100 µM (inactive)
UACC-257
  GI50: > 100 µM (inactive)
SNB-19
  GI50: > 100 µM (inactive)

## Cc1cc(C)c2c(c1C)CN1CN2Cc2c(C)c(C)cc(C)c21
HCT-15
  GI50: 20.4 µM
786-0
  GI50: > 100 µM (inactive)
NCI-H23
  GI50: 6.84 µM (inactive)
M14
  GI50: > 100 µM (inactive)
HL-60
  GI50: 11.4 µM (inactive)
SF-268
  GI50: > 100 µM (inactive)
SF-539
  GI50: > 100 µM (inactive)
NCI-H522
  GI50: > 100 µM (inactive)
SK-MEL-28
  GI50: > 100 µM (inactive)
TK-10
  GI50: > 100 µM (inactive)
ACHN
  GI50: > 100 µM (inactive)
LOX IMVI
  GI50: > 100 µM (inactive)
SNB-19
  GI50: < 0.01 µM (active)
SR
  GI50: > 100 µM (inactive)

## O=C(O)C12C3C4C1C1C2C3C41I (stereo not given)
HCT-15
  GI50: > 100 µM
786-0
  GI50: > 100 µM (inactive)
NCI-H23
  GI50: > 100 µM (inactive)
M14
  GI50: > 100 µM (inactive)
SK-MEL-2
  GI50: > 100 µM (inactive)
HL-60
  GI50: > 100 µM (inactive)
SF-268
  GI50: > 100 µM (inactive)
SF-539
  GI50: > 100 µM (inactive)
HCC 2998
  GI50: > 100 µM (inactive)
NCI-H522
  GI50: > 100 µM (inactive)
SK-MEL-28
  GI50: > 100 µM (inactive)
TK-10
  GI50: > 100 µM (inactive)
ACHN
  GI50: > 100 µM (inactive)
LOX IMVI
  GI50: > 100 µM (inactive)
UACC-257
  GI50: > 100 µM (inactive)
SNB-19
  GI50: > 100 µM (inactive)

## O=S(=O)(N/N=C\c1c2ccccc2[n+]([O-])c2ccccc12)c1ccc(Cl)cc1
HCT-15
  GI50: > 100 µM
786-0
  GI50: 43.5 µM (inactive)
NCI-H23
  GI50: 85.5 µM (inactive)
M14
  GI50: > 100 µM (inactive)
SK-MEL-2
  GI50: 46.1 µM (inactive)
HL-60
  GI50: > 100 µM (inactive)
SF-268
  GI50: > 100 µM (inactive)
HCC 2998
  GI50: > 100 µM (inactive)
NCI-H522
  GI50: 93.8 µM (inactive)
SK-MEL-28
  GI50: > 100 µM (inactive)
TK-10
  GI50: > 100 µM (inactive)
ACHN
  GI50: 35.6 µM (inactive)
LOX IMVI
  GI50: > 100 µM (inactive)
UACC-257
  GI50: > 100 µM (inactive)
SNB-19
  GI50: 53.3 µM (inactive)

## c1ccc([S+](c2ccccc2)c2ccc(Sc3ccc([S+](c4ccccc4)c4ccccc4)cc3)cc2)cc1
HCT-15
  GI50: > 100 µM
786-0
  GI50: 43.8 µM (inactive)
NCI-H23
  GI50: 3.06 µM (inactive)
M14
  GI50: 45.5 µM (inactive)
HL-60
  GI50: 2.58 µM (inactive)
SF-268
  GI50: 22.3 µM (inactive)
SF-539
  GI50: 31.3 µM (inactive)
HCC 2998
  GI50: 20.2 µM (inactive)
NCI-H522
  GI50: 12 µM (inactive)
SK-MEL-28
  GI50: 34.7 µM (inactive)
TK-10
  GI50: 36.2 µM (inactive)
ACHN
  GI50: 26.4 µM (inactive)
LOX IMVI
  GI50: 18.6 µM (inactive)
UACC-257
  GI50: 12.5 µM (inactive)
SNB-19
  GI50: 7.64 µM (inactive)
SR
  GI50: 6.44 µM (inactive)

## CCOC(=O)C(C)(C)Oc1ccc2c(C)c(-c3ccc(Cl)cc3)c(=O)oc2c1
HCT-15
  GI50: 34.3 µM
786-0
  GI50: > 100 µM (inactive)
NCI-H23
  GI50: 19.6 µM (inactive)
M14
  GI50: 74.8 µM (inactive)
SK-MEL-2
  GI50: > 100 µM (inactive)
HL-60
  GI50: 18.2 µM (inactive)
SF-268
  GI50: > 100 µM (inactive)
SF-539
  GI50: > 100 µM (inactive)
HCC 2998
  GI50: 59 µM (inactive)
SK-MEL-28
  GI50: > 100 µM (inactive)
TK-10
  GI50: > 100 µM (inactive)
ACHN
  GI50: 98.6 µM (inactive)
LOX IMVI
  GI50: 34.9 µM (inactive)
UACC-257
  GI50: 43.8 µM (inactive)
SNB-19
  GI50: 51.1 µM (inactive)
SR
  GI50: 27.7 µM (inactive)
